The subject of the assay is SK(-)GAS Streptococcus pyogenes + kanamycin, BacTiterGlo viability, 6 h. Kind of assay: growth inhibition of control SK(-) GAS strain, dose response, counter-screen for streptokinase expression inhibitor project, luminescence, kanamycin, BacTiterGlo, confirmation (AID 1900).

Several values for one entry are separate records, joined by “and”; a condition that tells them apart may be missing. Equal entries are not always repeated.

As for `CN(C)c1ccnc2c[cH-]cc12.[Fe].c1ccc(-[c-]2[c-](-c3ccccc3)[c-](-c3ccccc3)[c-](-c3ccccc3)[c-]2-c2ccccc2)cc1` (configuration not stated), the 50% effective concentration (EC50) is 0.989 µM and 0.334 µM.
Turning to `CNC(CC(C)C)C(=O)NC1C(=O)NC(CC(N)=O)C(=O)NC2C(=O)NC3C(=O)NC(C(=O)NC(C(=O)O)c4cc(O)cc(O)c4-c4cc3ccc4O)C(O)c3ccc(c(Cl)c3)Oc3cc2cc(c3OC2OC(CO)C(O)C(O)C2OC2CC(C)(N)C(O)C(C)O2)Oc2ccc(cc2Cl)C1O` (configuration not stated), the EC50 is 0.211 µM.

These data come from PubChem BioAssay AID1900 (Broad Institute, 2009).
